“Also recorded” adds a separate entry of the source. Where two headings read alike, the source gives them in different places. Positions of bridges follow the written chain, without caps; N, C: chain ends. Residues, ends and D or L forms follow the SMILES beside them.
Columns and labels:
WI-38 = assay type: cell-based, human; details: 3 h
Outline: (§1)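 Cytotoxicity of N-Ac-CHAVC-NH2 and the control peptide N-Ac-CHGVC-NH2 was assessed by MTT reduction in human endothelial, fibroblast and cancer cell lines at concentrations up to 100 μM. Proliferation was measured separately by ^3H-thymidine incorporation over the same concentration range.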

HUVEC = assay type: cell-based, human; details: 3 h
Outline: as §1

HMVEC = assay type: cell-based, human; details: 3 h
Outline: as §1

MDA-MB231 [1] = assay type: cell-based, human; details: 3 h
Outline: as §1

PC-3 [2] = assay type: cell-based, human; details: 3 h
Outline: as §1

IAFp2 = assay type: cell-based, human; details: 3 h
Outline: as §1

Solubility in RPMI = assay type: physicochemical; details: 1 mM
PC-3 [3] = test: Cytotoxicity, MTT assay, PC-3; assay type: cell-based, human
Outline: as §1

N-cadherin [4] = biological target: T1, N-cadherin (Gallus gallus, UniProt P10288); test: Neurite outgrowth inhibition, rat neurons (Example 21); assay type: cell-based; details: read-out: % Inhibition of neurite outgrowth; 250 μg/mL
T1 construct: expressed in transfected cells; host or cells: 3T3 fibroblasts (monolayer)
T1 sequence (P10288 165-912): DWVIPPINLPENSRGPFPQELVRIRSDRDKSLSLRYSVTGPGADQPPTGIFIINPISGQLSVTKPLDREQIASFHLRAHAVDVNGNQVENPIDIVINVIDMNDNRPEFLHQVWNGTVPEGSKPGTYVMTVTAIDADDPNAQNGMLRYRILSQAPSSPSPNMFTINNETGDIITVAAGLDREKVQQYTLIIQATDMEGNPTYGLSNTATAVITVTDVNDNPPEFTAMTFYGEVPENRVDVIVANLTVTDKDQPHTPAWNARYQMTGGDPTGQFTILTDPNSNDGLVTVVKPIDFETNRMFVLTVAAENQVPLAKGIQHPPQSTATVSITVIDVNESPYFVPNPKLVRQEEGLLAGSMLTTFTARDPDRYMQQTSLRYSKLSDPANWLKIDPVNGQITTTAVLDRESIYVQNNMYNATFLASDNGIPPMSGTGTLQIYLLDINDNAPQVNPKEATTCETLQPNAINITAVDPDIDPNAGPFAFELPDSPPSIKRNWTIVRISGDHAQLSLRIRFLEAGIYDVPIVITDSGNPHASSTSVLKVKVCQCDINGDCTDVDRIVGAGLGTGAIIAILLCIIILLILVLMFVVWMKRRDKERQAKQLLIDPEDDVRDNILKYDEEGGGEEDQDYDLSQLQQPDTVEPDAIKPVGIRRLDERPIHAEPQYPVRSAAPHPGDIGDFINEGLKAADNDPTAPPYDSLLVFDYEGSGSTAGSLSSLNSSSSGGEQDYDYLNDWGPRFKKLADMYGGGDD

MDA-MB231 [5] = test: Cytotoxicity, MTT assay, MDA-MB231; assay type: cell-based, human
Outline: as §1

N-cadherin [6] = biological target: T2, N-cadherin (Homo sapiens, UniProt P19022); details: cited from earlier work
T2 sequence (P19022 160-906): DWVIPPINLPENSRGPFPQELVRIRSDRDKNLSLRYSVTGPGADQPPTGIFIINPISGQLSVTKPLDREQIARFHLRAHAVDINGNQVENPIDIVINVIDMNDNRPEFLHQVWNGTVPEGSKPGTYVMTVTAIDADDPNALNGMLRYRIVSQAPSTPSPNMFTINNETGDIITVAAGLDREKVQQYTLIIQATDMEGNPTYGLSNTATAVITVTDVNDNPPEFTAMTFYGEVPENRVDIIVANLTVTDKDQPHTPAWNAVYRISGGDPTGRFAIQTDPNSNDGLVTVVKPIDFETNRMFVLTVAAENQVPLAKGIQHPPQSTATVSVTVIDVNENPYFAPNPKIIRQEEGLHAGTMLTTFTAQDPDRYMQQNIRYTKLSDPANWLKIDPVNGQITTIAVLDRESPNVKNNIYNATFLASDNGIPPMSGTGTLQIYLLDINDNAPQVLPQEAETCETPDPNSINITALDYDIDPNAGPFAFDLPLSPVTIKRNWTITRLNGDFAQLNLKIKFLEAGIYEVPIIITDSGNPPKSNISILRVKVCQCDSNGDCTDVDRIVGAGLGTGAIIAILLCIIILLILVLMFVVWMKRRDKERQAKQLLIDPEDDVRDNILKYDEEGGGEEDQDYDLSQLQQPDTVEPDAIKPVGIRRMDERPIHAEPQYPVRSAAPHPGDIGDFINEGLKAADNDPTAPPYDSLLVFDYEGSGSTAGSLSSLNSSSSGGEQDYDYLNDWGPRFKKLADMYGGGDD

[7] = system: Bovine pulmonary artery endothelial cells; test: Disruption of bovine endothelial cell adhesion; assay type: cell-based; details: 500 μg/ml, 30 minutes
Method: For use within one such assay, bovine pulmonary artery endothelial cells may be harvested by sterile ablation and digestion in 0.1% collagenase (type II; Worthington Enzymes, Freehold, N.J.). Cells may be maintained in Dulbecco's minimum essential medium supplemented with 10% fetal calf serum and 1% antibiotic-antimycotic at 37° C. in 7% CO2 in air. Cultures may be passaged weekly in trypsin-EDTA and seeded onto tissue culture plastic at 20,000 cells/cm^2. Endothelial cultures may be used at 1 week in culture, which is approximately 3 days after culture confluency is established. The cells may be seeded onto coverslips and treated (e.g., for 30 minutes) with modulating agent or a control compound at, for example, 500 μg/ml and then fixed with 1% paraformaldehyde. As noted above, disruption of cell adhesion may be determined visually within 24 hours, by observing retraction of the cells from one another. This assay evaluates the effect of a modulating agent on N-cadherin mediated cell adhesion.
Bovine pulmonary artery endothelial cells were harvested by sterile ablation and digestion in 0.1% collagenase (type II; Worthington Enzymes, Freehold, N.J.). Cells were maintained in Dulbecco's minimum essential medium (Clonetics, San Diego, Calif.) supplemented with 10% fetal calf serum (Atlantic Biologicals, Nor cross, Ga.) and 1% antibiotic-antimycotic at 37° C. in 7% CO2 in air. Cultures were passaged weekly in trypsin-EDTA (Gibco, Grand Island, N.Y.) and seeded onto tissue culture plastic at 20,000 cells/cm^2 for all experiments. Endothelial cultures were used at 1 week in culture, which is approximately 3 days after culture confluency was established. The cells used in all protocols were between 4th passage and 10th passage. The cells were seeded onto coverslips and treated 30 minutes with N—Ac-CHAVC-NH2 (SEQ ID NO:10) or N—Ac-CHGVC-NH2 (SEQ ID NO:11) at 500 μg/ml and then fixed with 1% paraformaldehyde.

[8] = system: Human saphenous vein vascular smooth muscle cells; test: Vascular smooth muscle cell apoptosis at migrating wound edge, in situ end labeling; assay type: cell-based; details: 0.2 mg/ml, 24 hours after wounding, n=5, p=0.1
Method: Human saphenous vein vascular smooth muscle cells were explanted from surplus segments of vein from patients undergoing coronary artery bypass surgery. Cells were maintained in Dulbecco's modified essential medium supplemented with […], 2 mmol/L L-glutamine and 10% fetal calf serum and were grown to confluence on glass coverslips. The cell layer was then subjected to scrape-wounding by drawing a fine cell scraper across the coverslip. Proliferation of the vascular smooth muscle cells was inhibited by addition of 2 mM hydroxyurea to the culture media. Vascular smooth muscle cells that are treated in this manner respond to the wounding of the confluent monolayer by migrating into the wound (Hammerle et al (1991) Vasa 20, 207-215). The percentage of apoptotic cells in the migrating edge (outermost 100 μm from the wound) was assessed by in situ end labeling at 24 hours after wounding (as in George et al (2001) Gene Therapy 8 668-676).

L1 = L1 (Homo sapiens, UniProt P32004); test: Neurite outgrowth of rat cerebellar neurons on L1 expressing 3T3 monolayers (Example 15); assay type: cell-based; set-up: expressed in transfected cells; rat cerebellar neurons on top
Chain of L1 (P32004 20-1257): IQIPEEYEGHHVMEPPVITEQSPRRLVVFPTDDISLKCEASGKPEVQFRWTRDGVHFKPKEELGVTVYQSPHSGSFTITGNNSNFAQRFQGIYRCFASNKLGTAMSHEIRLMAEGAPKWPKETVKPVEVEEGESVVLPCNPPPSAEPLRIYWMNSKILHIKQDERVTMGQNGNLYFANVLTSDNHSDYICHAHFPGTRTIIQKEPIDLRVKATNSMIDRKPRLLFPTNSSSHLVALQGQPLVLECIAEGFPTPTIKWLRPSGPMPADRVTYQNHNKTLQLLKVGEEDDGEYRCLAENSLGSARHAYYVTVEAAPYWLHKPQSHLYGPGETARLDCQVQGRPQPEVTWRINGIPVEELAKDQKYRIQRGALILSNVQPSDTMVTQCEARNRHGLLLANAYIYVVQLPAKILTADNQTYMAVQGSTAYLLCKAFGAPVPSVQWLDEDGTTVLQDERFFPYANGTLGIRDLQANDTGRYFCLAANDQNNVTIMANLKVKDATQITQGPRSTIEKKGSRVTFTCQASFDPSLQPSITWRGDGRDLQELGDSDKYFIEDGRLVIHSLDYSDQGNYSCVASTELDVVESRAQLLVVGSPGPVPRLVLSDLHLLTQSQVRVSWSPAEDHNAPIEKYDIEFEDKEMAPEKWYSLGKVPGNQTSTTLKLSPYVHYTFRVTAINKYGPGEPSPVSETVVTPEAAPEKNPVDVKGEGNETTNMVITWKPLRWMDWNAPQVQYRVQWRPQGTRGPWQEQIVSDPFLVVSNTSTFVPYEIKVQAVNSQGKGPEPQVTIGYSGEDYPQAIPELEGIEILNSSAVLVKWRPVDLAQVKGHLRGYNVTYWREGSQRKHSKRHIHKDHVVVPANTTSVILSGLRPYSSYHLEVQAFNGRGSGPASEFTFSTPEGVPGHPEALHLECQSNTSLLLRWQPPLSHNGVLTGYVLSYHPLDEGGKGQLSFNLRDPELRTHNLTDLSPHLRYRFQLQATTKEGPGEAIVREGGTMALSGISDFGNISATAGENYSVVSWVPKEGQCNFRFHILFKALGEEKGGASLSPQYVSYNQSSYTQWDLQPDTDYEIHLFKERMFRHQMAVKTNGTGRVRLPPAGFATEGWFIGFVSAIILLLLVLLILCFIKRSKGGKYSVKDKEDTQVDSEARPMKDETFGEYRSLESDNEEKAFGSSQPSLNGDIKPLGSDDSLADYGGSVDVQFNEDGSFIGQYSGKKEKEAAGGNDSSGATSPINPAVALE
Method: Cell culture and neurite outgrowth assays. Co-cultures of cerebellar neurons on monolayers of control 3T3 cells and monolayers of transfected 3T3 cells that express physiological levels of chick N-cadherin or human L1 were established as previously described (Williams et al., Neuron 13:583-594, 1994). In brief, 80,000 3T3 cells (control and transfected) were plated into individual chambers of an eight-chamber tissue culture slide coated with polylysine and fibronectin and cultured in DMEM/10% FCS. After 24 hours, when confluent monolayers had formed, the medium was removed and 3000 cerebellar neurons isolated from post-natal day 2-3 rats were plated into each well in SATO media (Doherty et al., Nature 343:464-466, 1990) supplemented with 2% FCS. All of the test peptides were added immediately before the neurons as a 2× stock prepared in SATO/2% FCS. The co-cultures were maintained for 16-18 hours, at which time they were fixed and immunostained for GAP-43 which is present only in the neurons and delineates the neuritic processes. The mean length of the longest neurite per cell was measured for 150-200 neurons sampled in replicate cultures as previously described (Williams et al., Neuron 13:583-594, 1994). […] Dose-response curves were evaluated and the EC50 values determined.
Other cell adhesion molecules, such as L1, can stimulate neurite outgrowth, and this response shares the same downstream signaling steps as the N-cadherin response. […] As previously reported, L1 stimulated neurite outgrowth from cerebellar neurons.

chick N-cadherin = biological target: T3, chick N-cadherin (Gallus gallus, UniProt P10288); test: Neurite outgrowth of rat cerebellar neurons on N-cadherin expressing 3T3 monolayers (Example 15); assay type: cell-based; details: Tables 8 and 9
T3 construct: expressed in transfected cells; host or cells: 3T3 fibroblasts (monolayer); rat post-natal day 2-3 cerebellar neurons plated on top
T3 sequence (P10288 165-912): T1 sequence (P10288 165-912)

[9] = system: Madin Darby canine kidney (MDCK) cells; assay type: cell-based
Method: Yet another assay evaluates the effect of a modulating agent on the electrical resistance across a monolayer of cells. For example, Madin Darby canine kidney (MDCK) cells can be exposed to the modulating agent dissolved in medium (e.g., at a final concentration of 0.5 mg/ml for a period of 24 hours). The effect on electrical resistance can be measured using standard techniques. This assay evaluates the effect of a modulating agent on tight junction formation in epithelial cells. In general, the presence of 500 μg/mL modulating agent should result in a statistically significant decrease in electrical resistance after 24 hours.
Madin Darby canine kidney (MDCK) cells were plated in Millicells (Millipore, Bedford, Mass.), at a density of 300,000 cells per Millicell, and cultured in Dulbecco's Modified Eagle Medium (DMEM; Sigma, St. Louis, Mo.) containing 5% fetal calf serum (Sigma, St. Louis, Mo.) until monolayers formed. Monolayers were exposed to the modulating agent dissolved in medium. The electrical resistance was measured using the EVOM device (World Precision Instruments, Sarasota, Fla.). At the time of measurement, fresh medium, with or without the modulating agent, may be added to the Millicells.

Row | IC50 (HMVEC) [µM] | IC50 (MDA-MB231 [1]) [µM] | IC50 (PC-3 [2]) [µM] | IC50 (IAFp2) [µM] | solubility in RPMI (Solubility in RPMI) | inhibition at 250 µg/mL (N-cadherin [4]) [%] | inhibition at 125 µg/mL (L1; 125 μg/ml, read-out: % Inhibition of L1 Response) [%] | Molecule | IC50 (WI-38) [µM] | IC50 (HUVEC) [µM] | IC50 (PC-3 [3]) [µM] | IC50 (MDA-MB231 [5]) [µM] | stimulation of neurite outgrowth (N-cadherin [6]) | effect on endothelial cell monolayer / morphology [7] | increase in apoptosis at wound edge [8] [fold] | effect on L1 stimulated neurite outgrowth (in words) (L1; concentrations that inhibited the N-cadherin response (100 μg/mL in FIG. 24)) | inhibitory activity on N-cadherin dependent neurite outgrowth, structure/activity statements (chick N-cadherin) | effect on electrical resistance across MDCK cells (in words) [9]
1 | 70 | 76 | > 100 | > 100 | *Incompletely soluble in RPMI at 1 mM | 0 | – | CC(=O)N[C@H]1CSSC[C@@H](C(N)=O)NC(=O)[C@H](CO)NC(=O)[C@H](CO)NC(=O)[C@H](C(C)C)NC(=O)[C@H](C)NC(=O)[C@H](Cc2c[nH]cn2)NC(=O)[C@H](CO)NC1=O (Ac-CSHAVSSC-NH2; disulfide 1-8 (inferred)) | > 100 | 69 | > 100 | > 100 | – | – | – | – | – | –
2 | – | – | – | – | – | – | – | N—AC-CHAVDINGHAVDIC-NH2: cyclic peptide presenting two HAV motifs in an antiparallel fashion (Williams et al. 2002) (Ac-CHAVDINGHAVDIC-NH2; disulfide 1-14 (inferred)) | – | – | – | – | capable of stimulating neurite outgrowth | – | – | – | – | –
3 | > 100 | 52 | > 100 | > 100 | *Incompletely soluble in RPMI at 1 mM | 0 | – | CC(=O)N[C@H]1CSSC[C@@H](C(N)=O)NC(=O)[C@H](CO)NC(=O)[C@H](C(C)C)NC(=O)[C@H](C)NC(=O)[C@H](Cc2c[nH]cn2)NC1=O [N—Ac—CHAVSC—NH2, N-Ac-Cys-His-Ala-Val-Ser-Cys-NH2] (Ac-CHAVSC-NH2; disulfide 1-6 (inferred)) | > 100 | 57 | > 100 | > 100 | – | – | – | – | – | –
4 | > 100 | > 100 | > 100 | > 100 | – | 0 | – | CC[C@H](C)[C@@H]1NC(=O)[C@H](CC(=O)O)NC(=O)[C@H](C(C)C)NC(=O)CNC(=O)[C@H](Cc2c[nH]cn2)NC(=O)[C@H](C)NC(=O)[C@@H](NC(C)=O)CSSC[C@@H](C(N)=O)NC1=O (Ac-CAHGVDIC-NH2; disulfide 1-8) | > 100 | > 100 | > 100 | > 100 | – | neither of the cyclic peptides show activity | – | – | – | –
5 | – | – | – | – | – | – | 6 ± 4.7 | CC[C@H](C)[C@@H]1NC(=O)[C@H](CC(=O)O)NC(=O)[C@H](C(C)C)NC(=O)[C@H](C)NC(=O)[C@H](Cc2c[nH]cn2)NC(=O)[C@@H](NC(C)=O)CSSC[C@@H](C(N)=O)NC1=O [N—Ac—CHAVDIC—NH2] (Ac-CHAVDIC-NH2; disulfide 1-7) | – | – | – | – | – | – | 1.3 | did not interfere with the ability of neurons to extend neurites over 3T3 cells expressing L1 | further increased activity; also recorded: potent inhibitors | complete abrogation of E-cadherin specific activity

Source: US20040106545A1, “Compounds and methods for modulating cell adhesion” (priority 1996, published 2004)
